Source: US20070135383A1, “Phospholipase inhibitors, including multi-valent phospholipase inhibitors, and use thereof, including as lumen-localized phospholipase inhibitors” (priority 2005, published 2007)
Like-named read-outs stand apart in the source and are kept apart here.

Tests used:
[1] = target: T1, human group 1B PLA2 (hps PLA2) (Homo sapiens, UniProt P04054); experiment: Fluorimetric PPyrPM assay for group 1B PLA2 inhibition (Example 12); type: biochemical; settings: for inhibition at 15 µM: read-out: ILYPSA % inhibition at 15 μM hps PLA2
T1 construct: made in house; host or cells: E. coli
T1 sequence (P04054 23-148): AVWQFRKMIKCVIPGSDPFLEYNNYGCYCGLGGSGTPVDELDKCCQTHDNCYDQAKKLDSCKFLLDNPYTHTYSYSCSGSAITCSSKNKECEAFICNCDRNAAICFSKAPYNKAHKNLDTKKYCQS
From the text: (§1) In this example, a fluorimetric assay procedure was used to evaluate the indole and indole-related compounds of the invention as inhibitors of group 1B phospholipase A2 (PLA2) from human, mouse and porcine. A description of this assay is found in articles: Leslie, C C and Gelb, M H (2004) Methods in Molecular Biology “Assaying phospholipase A2 activity”, 284:229-242; Singer, A G, et al. (2002) Journal of Biological Chemistry “Interfacial kinetic and binding properties of the complete set of human and mouse groups I, II, V, X, and XII secreted phospholipases A2”, 277:48535-48549, which are incorporated herein as references.
(§2) In general, this assay used a phosphatidylmethanol substrate with a pyrene fluorophore on the terminal end of the sn-2 fatty acyl chain. Without being bound by theory, close proximity of the pyrenes from neighboring phospholipids in a phospholipid vesicle caused the spectral properties to change relative to that of monomeric pyrene. Bovine serum albumin was present in the aqueous phase and captured the pyrene fatty acid when it is liberated from the glycerol backbone owing to the PLA2-catalyzed reaction. However, a potent inhibitor can inhibit the liberation of pyrene fatty acid from the glycerol backbone. […] The effect of a given inhibitor and inhibitor concentration on human, mouse and porcine phospholipase was determined.
(§3) Recombinant human and mouse group 1B PLA2 were cloned and expressed in E. coli as insoluble inclusion bodies. The inclusion bodies were isolated and purified by sonicating cell pellet in lysis buffer (50 mM Tris-HCl pH 7.0, 250 mM NaCl, 0.5% Triton 100), centrifugation at 12,000×g, and washing three times in washing buffer (20 mM Tris-HCl pH 7.0, 250 mM NaCl, 0.5% Triton 100). Then the inclusion bodies were dissolved in dissolving buffer (50 mM Tris-HCl pH 7.0, 250 mM NaCl, 6 M Guanidine-HCl, 1 mM DTT) and dialyzed four times against 10 volumes of refolding buffer (20 mM Tris-HCl pH 7.0, 250 mM NaCl, 0.5M Guanidine-HCl, 5% (w/w) Glycerol, 2 mM reduced glutathione and 0.4 mM oxidized glutathione) at 4° C. The correctly refolded proteins were concentrated using Amicon Stirred cell under nitrogen pressure (<70 psi) and dialyzed against 10 volumes of 50 mM Tris-HCl pH 7.0, 250 mM NaCl and 5% (w/w) glycerol. Human and mouse group 1B PLA2 were further purified by High S ion exchange and gel filtration columns.
(§4) The following reagents and equipments were obtained from commercial vendors: • 1. Porcine group 1B phospholipase A2 • 2. 1-hexadecanoyl-2-(1-pyrenedecanoyl)-sn-glycero-3-phosphomethanol (PPyrPM) • 3. Bovine serum albumin (BSA, fatty acid free) • 4. 2-Amino-2-(hydroxymethyl)-1,3-propanediol, hydrochloride (Tris-HCl) • 5. Calcium chloride • 6. Potassium chloride • 7. Solvents: DMSO, toluene, isopropanol, ethanol • 8. Molecular Devices SPECTRAmax microplate spectrofluorometer • 9. Costar 96 well black wall/clear bottom plate
(§5) The following reagents were prepared: • 10. PPyrPM stock solution (1 mg/ml) in toluene:isopropanol (1:1) • 11. ILY104 inhibitor stock solution (10 mM) in DMSO • 12. 3% (w/v) bovine serum albumin (BSA) • 13. Stock buffer: 50 mM Tris-HCl, pH 8.0, 50 mM KCl and 1 mM CaCl2
(§6) The following procedure was performed to evaluate the inhibitory potency of the evaluated compounds. • 14. An assay buffer was prepared by adding 3 ml 3% BSA to 47 ml stock buffer. • 15. Solution A was prepared by adding serially diluted inhibitors to the assay buffer. Inhibitors were three-fold diluted in stock buffer in a series of 8 from 15 uM. • 16. Solution B was prepared by adding human, mouse or porcine PLA2 to the assay buffer. This solution was prepared immediately before use to minimize enzyme activity loss. • 17. Solution C was prepared by adding 30 ul PPyrPM stock solution to 90 ul ethanol, and then all 120 ul of PPyrPM solution was transferred drop-wise over approximately 1 min to the continuously stirring 8.82 ml assay buffer to form a final concentration of 4.2 uM PPyrPM vesicle solution. • 18. […]

[2] = target: T2, mouse group 1B PLA2 (mps PLA2) (Mus musculus, UniProt Q9Z0Y2); experiment: as above; type: biochemical; settings: for inhibition at 15 µM: read-out: ILYPSA % inhibition at 15 μM mps PLA2
T2 construct: made in house; host or cells: E. coli
T2 sequence (Q9Z0Y2 23-146): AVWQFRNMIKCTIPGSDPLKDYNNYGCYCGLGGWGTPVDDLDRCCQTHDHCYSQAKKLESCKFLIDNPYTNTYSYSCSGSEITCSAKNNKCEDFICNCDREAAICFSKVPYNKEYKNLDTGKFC
From the text: as §1, §2, §3, §4, §5, §6

[3] = target: T3, porcine group 1B PLA2 (pps PLA2) (Sus scrofa, UniProt P00592); experiment: as above; type: biochemical; settings: porcine pancreas secreted PLA2; for IC50: read-out: ILYPSA IC50 pps PLA2; for inhibition at 15 µM: read-out: ILYPSA % inhibition at 15 μM pps PLA2
T3 construct: purchased
T3 sequence (P00592 23-146): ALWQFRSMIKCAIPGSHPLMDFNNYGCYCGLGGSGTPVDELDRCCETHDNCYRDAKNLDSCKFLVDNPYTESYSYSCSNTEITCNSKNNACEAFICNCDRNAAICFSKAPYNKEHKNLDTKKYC
From the text: as §1, §2, §4, §5
The following procedure was performed to evaluate the inhibitory potency of the evaluated compounds. • 14. An assay buffer was prepared by adding 3 ml 3% BSA to 47 ml stock buffer. • 15. Solution A was prepared by adding serially diluted inhibitors to the assay buffer. Inhibitors were three-fold diluted in stock buffer in a series of 8 from 15 uM. • 16. Solution B was prepared by adding human, mouse or porcine PLA2 to the assay buffer. This solution was prepared immediately before use to minimize enzyme activity loss. • 17. Solution C was prepared by adding 30 ul PPyrPM stock solution to 90 ul ethanol, and then all 120 ul of PPyrPM solution was transferred drop-wise over approximately 1 min to the continuously stirring 8.82 ml assay buffer to form a final concentration of 4.2 uM PPyrPM vesicle solution. • 18. The SPECTRAmax microplate spectrofluorometer was set at 37° C. • 19. 100 ul of solution A was added to each inhibition assay well of a costar 96 well black wall/clear bottom plate • 20. 100 ul of solution B was added to each inhibition assay well of a costar 96 well black wall/clear bottom plate. • 21. 100 ul of solution C was added to each inhibition assay well of a costar 96 well black wall/clear bottom plate. • 22. The plate was incubated inside the spectrofluorometer chamber for 3 min. • 23. The fluorescence was read using an excitation of 342 nm and an emission of 395 nm.
Evaluated compounds were tested in duplicate and their values were averaged to plot the inhibition curve and calculate the IC50. Compared to uninhibited controls, lower fluorescent signal at an emission of 395 nm in test reactions evidenced inhibition of PLA2. […] Compounds initially found to be active were repeated to confirm their inhibitory activity. […]

[4] = Mouse pharmacokinetic study, IV vs oral (Example 18); type: in vivo, male CD-1 mice; settings: PO 30 mg/kg vs IV 3 mg/kg, serum by LC/MS/MS; for bioavailability: male, CD-1, mouse, in vivo
Method: The plasma exposure of male CD-1 mice to indole and indole-related test articles (TAs) following intravenous (IV, 3 mg/kg) and oral (PO, 30 mg/kg) routes of administration was measured. This model was used to investigate the bioavailability of indole and indole-related TAs in mouse. Mice were selected for the study since they are an accepted species frequently used in pre-clinical evaluation of drugs intended for human use.
Male CD-1 mice (7-8 weeks old) were obtained from Charles River Laboratories (Wilmington, Mass.). Two groups (N=18 and 27) of male CD-1 mice were used for the study. Upon arrival, the animals were placed on Rodent Diet 5001 (Purina Mills, Inc., St. Louis, Mo.).
On study day (−1), indole and indole-related TAs were formulated for oral or IV dosing by mixing the formulation components with test article in the proportions described in Table 10.1. The components were mixed by vortexing and sonicating in a warming bath for 60 minutes. Animals were fasted overnight prior to start of the study. On study day (1), formulations were sonicated for an hour to make sure that no visible particles were present prior to dosing, or if present were evenly distributed in suspension. Formulated test article were stirred continuously during dosing.
All animals were weighed on study day (1) and the body weights were recorded and used for dose calculation. The animals were dosed by either PO or IV route as outlined in Table 10.2. Blood samples (0.5 mL) were collected at specified time intervals into labeled, yellow-capped Microtainer tubes. The tubes were centrifuged (8,000×g, 10 min). Serum was then pipetted off into labeled Eppendorf® tubes and frozen at −80° C. Clinical observations were recorded as needed.
Analysis of serum samples was performed by LC/MS/MS (Waters Quattro Premier, Milford, Mass.). Areas under curves (AUC) were calculated using Graphpad Prism Version 4. Bioavailability was calculated using the following equation: (Bioavailability)=(AUC0-t,oral/AUC0-t,iv)×(Doseiv/Doseoral)×100
where AUC0-t=total area under curve at the last measurable time point

[5] = human pancreas secreted PLA2, read-out: ILYPSA IC50 hps PLA2
[6] = mouse pancreas secreted PLA2, read-out: ILYPSA IC50 mps PLA2

## Cc1c(C(=O)C(N)=O)c2c(OCC(=O)O)cccc2n1CCCCCCCCCCCCOc1ccccc1OCCCCCCCCCCCC(=O)O [ILY-V-41, 12-{2-[12-(3-Aminooxalyl-4-carboxymethoxy-2-methyl-indol-1-yl)-dodecyloxy]-phenoxy}-dodecanoic acid]
[1]; [5]
  IC50: 1540 nM
[2]; [6]
  IC50: 1600 nM
[3]
  IC50: 1140 nM
[4]
  bioavailability: 1.62%

## Cc1c(C(=O)C(N)=O)c2c(OC(C(=O)O)C(C)C)cccc2n1CCCCCCCCCCCCOc1ccccc1OCCCCCCCCCCCCn1c(C)c(C(=O)C(N)=O)c2c(OC(C(=O)O)C(C)C)cccc21 (stereo not drawn) [ILY-V-33, 2,2′-(1,1′-(12,12′-(1,2-phenylenebis(oxy))bis(dodecane-12,1-diyl))bis(3-(2-amino-2-oxoacetyl)-2-methyl-1H-indole-4,1-diyl))bis(oxy)bis(3-methylbutanoic acid)]
[1]; [5]
  IC50: 220 nM
[2]; [6]
  IC50: 200 nM
[3]
  IC50: 240 nM
[4]
  bioavailability: 8.75%

## Cc1c(C(=O)C(N)=O)c2c(OCC(=O)NS(=O)(=O)CCCC(=O)O)cccc2n1Cc1ccccc1 [ILY-IV-40, 4-[2-(3-Aminooxalyl-1-benzyl-2-methyl-1H-indol-4-yloxy)-acetylsulfamoyl]-butyric acid]
[4]
  Bioavailability (%): 0.50%

## Cc1c(C(=O)C(N)=O)c2c(OCC(=O)O)cccc2n1CCCCCCCCCCCCNCCCCCCCCCCCCn1c(C)c(C(=O)C(N)=O)c2c(OCC(=O)O)cccc21 [ILY-V-45, (3-Aminooxalyl-1-{12-[12-(3-aminooxalyl-4-carboxymethoxy-2-methyl-indol-1-yl)-dodecylamino]-dodecyl}-2-methyl-1H-indol-4-yloxy)-acetic acid]
[1]; [5]
  IC50: 120 nM
[2]; [6]
  IC50: 70 nM
[3]
  IC50: 40 nM

## Cc1c(C(=O)C(N)=O)c2c(OCC(=O)O)cccc2n1CCCCCCCCCCCCSCCCCSCCCCCCCCCCCCn1c(C)c(C(=O)C(N)=O)c2c(OCC(=O)O)cccc21 [ILY-V-25, 2,2′-(1,1′-(12,12′-(Butane-1,4-diylbis(sulfanediyl))bis(dodecane-12,1-diyl))bis(3-(2-amino-2-oxoacetyl)-2-methyl-1H-indole-4,1-diyl))bis(oxy)diacetic acid]
[1]; [5]
  IC50: 150 nM
[2]; [6]
  IC50: 350 nM
[3]
  IC50: 190 nM

## Cc1c(C(=O)C(N)=O)c2c(OCC(=O)NS(C)(=O)=O)cccc2n1Cc1ccccc1 [ILY-IV-21, 1-Benzyl-2-methyl-4-methanesulfonamidoylmethyloxy-1H-indol-3-glyoxylamide]
[1]; [5]
  IC50: 1160 nM
[2]; [6]
  IC50: 320 nM
[3]
  IC50: < 20 nM

## COC(=O)C(Oc1cccc2c1c(C(=O)C(N)=O)c(C)n2Cc1ccccc1)C(=O)O (stereo not drawn) [ILY-IV-59]
[1]; human pancreas secreted PLA2
  inhibition at 15 µM: 10.2%
[2]; mouse pancreas secreted PLA2
  inhibition at 15 µM: 35.7%
[3]
  inhibition at 15 µM: 56.8%

## CCC(Oc1nccc2c1c(C(=O)C(N)=O)c(C)n2Cc1ccccc1)C(=O)O (stereo not drawn) [ILY-II-11, 2-(3-Aminooxalyl-1-benzyl-2-methyl-1H-pyrrolo[3,2-c]pyridin-4-yloxy)-butyric acid]
[1]
  IC50: 480 nM
[2]
  IC50: 30 nM
[3]
  IC50: < 20 nM

## Cc1c(C(=O)C(N)=O)c2c(OC(C(=O)O)C(=O)O)cccc2n1Cc1ccccc1 [ILY-IV-8, 2-(3-Aminoooxalyl-1-benzyl-2-methyl-1H-indol-4-yloxy)-malonic acid]
[1]; human pancreas secreted PLA2
  inhibition at 15 µM: 41%
[2]; mouse pancreas secreted PLA2
  inhibition at 15 µM: 61.2%
[3]
  IC50: 2250 nM

## Cc1c(C(=O)C(N)=O)c2c(OC(F)(C(=O)O)C(F)(F)Br)cccc2n1Cc1ccccc1 (stereo not drawn) [ILY-IV-55, 2-(3-(2-amino-2-oxoacetyl)-1-benzyl-2-methyl-1H-indol-4-yloxy)-3-bromo-2,3,3-trifluoropropanoic acid]
[1]; human pancreas secreted PLA2
  inhibition at 15 µM: 34%
[2]; mouse pancreas secreted PLA2
  inhibition at 15 µM: 42.6%
[3]
  inhibition at 15 µM: 74.5%

## Cc1c(C(=O)C(N)=O)c2c(OCC(=O)NS(C)(=O)=O)nccc2n1Cc1ccccc1 [ILY-II-7, 2-[1-Benzyl-4-(2-methanesulfonylamino-2-oxo-ethoxy)-2-methyl-1H-pyrrolo[3,2-c]pyridin-3-yl]-2-oxo-acetamide]
[1]; [5]
  IC50: 2070 nM
[2]; [6]
  IC50: 1050 nM
[3]
  IC50: 40 nM
